How the values were obtained:
[1] = test system: PLC; conditions: cited from earlier work
[2] = test system: Caco2 cells; assay: Determination of intracellular zinc concentration with Zinquin ethyl ester; format: cell-based, human; conditions: 5 µM sodium pyrithione added to 5 µM ZnSO4, 30 min
Procedure: Confluent Caco2 cells in a Φ10-cm culture dish were subjected to serum starvation overnight and incubated with 10 µM MG132 for 30 min. […] The cells were harvested by trypsinization, washed with PBS and suspended at the density of 5 × 10^6 cells/ml in Hanks’ balanced salt solution (HBSS). After the addition of 1 mg/ml Zinquin ethyl ester (Dojindo Laboratories, Kumamoto, Japan)[27] dissolved in DMSO at the final concentration of 25 µM, the cell suspension was incubated at 37 °C for 30 min. Subsequently, the cells were washed three times with HBSS, suspended in HBSS at the density of 5 × 10^6 cells/ml and subjected to measurement of the fluorescence emission at 490 nm with the excitation at 370 nm by POLARstar Omega-25.

[3] = molecular target: T1, human PLCε (Homo sapiens, UniProt Q9P212); assay: In vitro PLC assay using fluorogenic substrate Compound 1 (HTS), PLCε; format: biochemical; conditions: Compound 1 as substrate, varying concentrations
T1 construct: expressing the full-length polypeptides of human PLCε, PLCβ4, PLCδ1 and PLCγ1 as FLAG fusions; made in house; host or cells: Expi293F cells
Procedure: For measuring inhibition by compounds for HTS, the reactions were conducted at RIKEN Center for Sustainable Resource Science (CSRS) as described above except that 5 µl of compound solution and 5 µl of purified PLCe (120 ng) were added to each well. […] For determination of the IC50 values for ZPT and Zn^2+, the EDTA concentration was reduced to one-tenth to avoid its zinc-chelating effect. For assay of the other PLC classes, the reactions were performed similarly except that PLCβ4 (5 ng), PLCδ1 (0.1 ng) or PLCγ1 (0.3 ng) was used instead of PLCε.

[4] = test system: SW620 cells; assay: Experimental lung metastasis of SW620 cells in nude mice; format: in vivo; conditions: i.p. twice, one week before and after cell injection, ZPT 2.5 or 5 mg/kg, dipyrithione 5 mg/kg
Procedure: Female nude mice (6–8 weeks old) were injected with SW620 cells (1 × 10^7 cells) suspended in 200 µl L-15 medium via tail vein and maintained for further 8 weeks. ZPT, dipyrithione or the vehicle was administered intraperitoneally to the mice twice, 1 week before and after the cell injection. Thereafter, the mice were sacrificed, and their lungs were excised, fixed in 4% PFA, embedded in paraffin and serially sectioned. The Sect. (10-µm thick) were subjected to H&E staining. For histologic evaluation of lung micro-metastasis, the number of micro-metastatic nodules in 3 non-contiguous lung sections from each mouse was counted under a light microscope as described previously.

[5] = test system: SW480 cells; assay: Tumour xenograft of SW480 cells in nude mice; format: in vivo; conditions: i.p. 3 days per week for 3 weeks, ZPT 2.5, 5 or 10 mg/kg, dipyrithione 5 mg/kg
Procedure: (§1) Tumour xenograft experiments were performed as previously described. Briefly, SW480 or Caco2 cells (5 × 10^6 cells each) were implanted subcutaneously into the right flanks of female athymic nude (nu/nu) mice (6–8 weeks old, CLEA Japan). One week later, the mice were administered intraperitoneally with ZPT, dipyrithione or the vehicle 3 days per week for 3 or 8 weeks, respectively, during which the volumes (V) of the tumours, calculated by the following formula: V = A × B^2/2 (A: the largest diameter, B: the perpendicular diameter), and the body weight were monitored every 7 days. Thereafter, tumours of the SW480-grafted mice were dissected, weighed, fixed in 4% paraformaldehyde, embedded in paraffin and serially sectioned. The Sect. (10-µm thick) were subjected to immunohistochemical detection of phosphorylated PKD by using anti-phospho-PKD antibody and HISTMOUSE-PLUS Kit (ZYMED Lab., Carlsbad, CA) according to the manufacturer’s protocol.

[6] = test system: intestinal tumours of Apc^Min/+ mice; assay: Intestinal tumourigenesis of Apc^Min/+ mice; format: in vivo; conditions: i.p. 3 days per week for 11 weeks, ZPT 2.5 or 5 mg/kg, dipyrithione 5 mg/kg
Procedure: Five weeks-old Apc^Min/+ mice were administered intraperitoneally with ZPT, dipyrithione or the vehicle 3 days per week for 11 weeks. Thereafter, the mice were sacrificed and the whole small intestines were excised, rolled up in a ‘Swiss roll’ configuration, embedded in OCT compound and longitudinally sectioned at the 10-µm thickness. One section in the middle position of each intestine was subjected to H&E staining after fixation with 4% PFA, and tumours in the whole section were classified under microscope into hyperplasias, low-grade adenomas, high-grade adenomas and adenocarcinomas according to the histopathological criteria recommended for the study of mouse models of intestinal cancer. The classification was conducted by a pathologist at Pathology Analysis Center (Kanagawa, Japan) under the blind condition regarding the compound administration.

[7] = test system: DSS-induced inflammatory colitis; assay: DSS-induced inflammatory colitis; format: in vivo, mice; conditions: 2.5% DSS 7 days; i.p. once a day, ZPT 2.5, 5 or 10 mg/kg, dipyrithione 10 mg/kg
Procedure: To induce inflammatory colitis, 10 weeks-old C57BL/6JJc1 mice were allowed to take drinking water containing 2.5% (w/v) DSS (molecular weight 36,000 ~ 50,000; Wako Pure Chemical, Osaka, Japan) ad libitum for 7 days[9],[30]. During this period, they were administered intraperitoneally with ZPT, dipyrithione or a vehicle (0.5% carboxymethyl cellulose and 0.9% NaCl) once a day. Thereafter, their colons were excised, washed with PBS, dissected longitudinally, fixed in 4% paraformaldehyde (PFA), embedded in paraffin and serially sectioned as described. The Sect. (10-µm thick) were subjected to H&E staining. Images were taken with an Olympus FSX100 microscope and Olympus FSX100-BSW software. The severity of inflammatory colitis was also assessed by measuring the body weight loss and the colon length shortening.

[8] = test system: Caco2 cells; assay: Tumour xenograft of Caco2 cells in nude mice; format: in vivo; conditions: i.p. 3 days per week for 8 weeks, ZPT 2.5, 5 or 10 mg/kg, dipyrithione 5 mg/kg
Procedure: as §1

T1 sequence (Q9P212 whole entry, the tested form may be a part): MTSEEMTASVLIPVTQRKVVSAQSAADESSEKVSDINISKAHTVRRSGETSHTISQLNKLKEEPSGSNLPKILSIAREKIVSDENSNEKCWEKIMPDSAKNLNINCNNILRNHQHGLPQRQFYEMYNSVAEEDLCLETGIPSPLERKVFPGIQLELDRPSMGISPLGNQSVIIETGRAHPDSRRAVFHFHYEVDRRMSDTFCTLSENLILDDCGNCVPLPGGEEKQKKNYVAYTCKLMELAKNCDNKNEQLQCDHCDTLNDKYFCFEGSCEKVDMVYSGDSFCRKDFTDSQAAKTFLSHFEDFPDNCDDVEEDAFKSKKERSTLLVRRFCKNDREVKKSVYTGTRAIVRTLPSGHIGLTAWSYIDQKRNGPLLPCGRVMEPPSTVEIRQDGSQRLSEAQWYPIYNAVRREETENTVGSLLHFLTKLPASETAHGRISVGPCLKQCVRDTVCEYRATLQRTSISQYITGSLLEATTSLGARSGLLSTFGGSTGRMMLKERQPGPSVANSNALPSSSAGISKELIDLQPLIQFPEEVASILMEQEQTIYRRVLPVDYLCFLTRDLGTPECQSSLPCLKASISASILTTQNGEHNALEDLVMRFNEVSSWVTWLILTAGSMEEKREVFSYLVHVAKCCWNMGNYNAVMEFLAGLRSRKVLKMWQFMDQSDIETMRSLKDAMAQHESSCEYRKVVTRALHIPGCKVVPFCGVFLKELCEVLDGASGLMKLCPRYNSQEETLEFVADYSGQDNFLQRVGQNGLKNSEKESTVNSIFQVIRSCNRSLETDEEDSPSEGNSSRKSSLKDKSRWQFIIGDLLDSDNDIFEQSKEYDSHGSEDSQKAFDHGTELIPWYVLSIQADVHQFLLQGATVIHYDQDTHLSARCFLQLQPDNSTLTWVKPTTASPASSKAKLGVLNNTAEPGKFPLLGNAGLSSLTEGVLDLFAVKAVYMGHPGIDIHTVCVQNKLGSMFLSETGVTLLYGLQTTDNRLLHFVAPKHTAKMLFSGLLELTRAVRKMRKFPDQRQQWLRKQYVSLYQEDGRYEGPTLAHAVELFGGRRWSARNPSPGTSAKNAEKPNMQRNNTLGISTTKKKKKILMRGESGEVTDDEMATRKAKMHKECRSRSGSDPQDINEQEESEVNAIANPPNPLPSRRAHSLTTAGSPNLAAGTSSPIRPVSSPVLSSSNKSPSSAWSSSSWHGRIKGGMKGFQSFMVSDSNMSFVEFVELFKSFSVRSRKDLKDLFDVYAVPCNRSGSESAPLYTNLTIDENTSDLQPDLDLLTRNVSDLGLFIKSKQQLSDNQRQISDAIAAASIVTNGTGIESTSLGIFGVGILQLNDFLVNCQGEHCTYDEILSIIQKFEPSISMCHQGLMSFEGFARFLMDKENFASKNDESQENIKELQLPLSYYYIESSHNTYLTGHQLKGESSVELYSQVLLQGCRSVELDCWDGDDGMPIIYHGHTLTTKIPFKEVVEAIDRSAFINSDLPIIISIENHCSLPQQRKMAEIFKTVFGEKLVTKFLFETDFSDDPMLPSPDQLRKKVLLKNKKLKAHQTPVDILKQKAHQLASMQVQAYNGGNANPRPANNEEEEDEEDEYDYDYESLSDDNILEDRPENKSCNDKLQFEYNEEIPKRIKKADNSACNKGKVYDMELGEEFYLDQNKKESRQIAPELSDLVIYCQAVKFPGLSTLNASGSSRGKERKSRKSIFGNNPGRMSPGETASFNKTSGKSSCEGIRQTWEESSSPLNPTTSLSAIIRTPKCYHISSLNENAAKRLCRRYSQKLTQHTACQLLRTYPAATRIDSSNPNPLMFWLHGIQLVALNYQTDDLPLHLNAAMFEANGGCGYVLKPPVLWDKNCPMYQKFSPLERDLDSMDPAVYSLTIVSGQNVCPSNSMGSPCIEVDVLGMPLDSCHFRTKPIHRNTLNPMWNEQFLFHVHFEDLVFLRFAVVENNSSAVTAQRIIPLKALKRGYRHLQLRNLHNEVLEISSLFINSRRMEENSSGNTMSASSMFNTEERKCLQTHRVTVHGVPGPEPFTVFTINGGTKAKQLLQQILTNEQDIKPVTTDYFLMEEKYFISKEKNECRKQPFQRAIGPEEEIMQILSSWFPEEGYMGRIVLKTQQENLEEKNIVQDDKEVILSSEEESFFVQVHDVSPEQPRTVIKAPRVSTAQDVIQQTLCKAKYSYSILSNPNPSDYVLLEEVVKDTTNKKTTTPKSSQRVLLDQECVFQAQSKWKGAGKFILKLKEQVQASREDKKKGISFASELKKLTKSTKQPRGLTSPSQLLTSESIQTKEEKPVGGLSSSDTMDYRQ

In the case of COc1ccc2c(c1)CC[C@@H]1[C@@H]2CC[C@]2(C)[C@@H](NCCCCCCN3C(=O)C=CC3=O)CC[C@@H]12 [U73122], the “inhibition of PLC catalytic activity in vitro” value [1] is given as “failed to inhibit PLC catalytic activity in vitro”.

In the case of On1ccccc1=S [sodium pyrithione], the “increase in intracellular Zn^2+ concentration” value [2] is reported as 8.78 fold and the “inhibition of PLCε” value [3] is reported as “failed to inhibit PLCε”.

For [O-][n+]1ccccc1SSc1cccc[n+]1[O-] [dipyrithione], the “numbers of micro-metastatic nodules in lung sections” value [4] was “exhibited no effect”, the “inhibition of PLCε” value [3] was “failed to inhibit PLCε” and the “growth of grafted cells (tumour volume)” value [5] was “not”. For the same compound, the “ratio of high-grade adenomas / progression of low-grade to high-grade adenomas” value [6] was “appeared to accelerate the progression of low-grade adenomas to high-grade adenomas”, the body weight loss [7] was “failed to alleviate” and the colon length shortening [7] was “failed to alleviate”. For the same compound, the “histology: erosion of the mucosa, swelling of the submucosa and leukocyte infiltration” value [7] was “failed to alleviate” and the “growth of grafted cells (tumour volume)” value [8] was “not”.

From paper PMC12647759 (Scientific Reports, 2025)
